From patent US10421782B2, “Cyclic cationic peptides with antimicrobial activity” (I.C.F. S.R.L., priority 2012, dated 2019)
Read-outs that look alike come from different tables or passages of the source.

What was measured:
P. aeruginosa ATCC 27853 = type: cell-based, Pseudomonas aeruginosa; conditions: ATCC 27853, 2 h
Procedure: Several peptides were tested for their ability to inhibit bacterial growth in liquid culture. Fifty microliters of peptide at a concentration between about 0.2 mM and 50 mM were added in 96-well U-bottom plates containing phosphate buffer 10 mM supplemented with 125 or 250 mM NaCl and one of the following bacteria: Escherichia coli ATCC 25922, P. aeruginosa ATCC 27853. After 2 hour incubation at 37° C., bacteria were transferred on a solid medium. As a growth control, the bacterial cultures were cultured in the absence of peptides.
The bacterial suspension was put in contact for two hours with different concentrations of the peptide at the temperature of 37° C. After incubation, 20 μl were drawn from the wells of each dilution and seeded on the solid medium agar McConkey for Gram-negative bacteria and Columbia agar supplemented with 5% bovine red blood cells for Gram-positive bacteria. The inoculum was evenly distributed on the agarized medium by means of a sterile disposable loop. After incubation for 24 h at the temperature of 37° C., counting of the colony forming units (CFU) was performed.
In table 6A, the antimicrobial activity against E. coli ATCC 25922, Pseudomonas aeruginosa ATCC 27853 in the presence of […] NaCl is reported.

E. coli ML-35pYC = assay: Membrane permeabilization assay (CENTA / ONPG kinetics); type: cell-based, Escherichia coli; conditions: peptide 12.5 μg/ml, logistic 4-parameter fit, read up to 240 min
Procedure: The strain ML-35pYC of E. coli was used to assay the kinetics of membrane permeabilization performed by the peptides of the invention. This bacterial strain expresses resistance to ampicillin, constitutive expression of cytoplasmic beta-galactosidase, and is engineered with a plasmid for the synthesis of a periplasmic beta-lactamase. Sixty microliters (60 μl) of bacterial suspension of strain ML-35pYC of E. coli were added to 60 μl of a 15 mM solution of ONPG or 1.5 mM of CENTA in phosphate buffer. Subsequently, 120 μl of the test peptides were added to obtain a final concentration of 12.5 μg/ml. The kinetics of the reaction was evaluated by recording the value of absorbance at […] and 405 nm, for ONPG and CENTA respectively, every 10 min up to a maximum of 240 min.
By “fitting” the experimental points with the logistic 4-parameter curve, it was possible to determine the inflexion point, that is the point where the curve changes direction, relative to the 3 test peptides. No inflexion point was observed during the assay with CENTA (inflexion point higher than 500 min).

`CC[C@H](C)[C@@H]1NC(=O)[C@H](CCCCN)NC(=O)[C@H](C)NC(=O)[C@@H](NC(=O)[C@H](CCCCN)NC(=O)[C@@H](N)Cc2c[nH]cn2)CSSC[C@@H](C(=O)N[C@@H](C)C(=O)O)NC(=O)[C@H](Cc2ccc(O)cc2)NC(=O)[C@H](CCCCN)NC(=O)[C@H](C(C)C)NC(=O)[C@H](Cc2c[nH]cn2)NC(=O)[C@H](C(C)C)NC(=O)CNC(=O)[C@H](CCCNC(=N)N)NC(=O)[C@H](Cc2c[nH]c3ccccc23)NC(=O)[C@H](CCCCN)NC1=O` (relative stereo) [Peptide P2041, HIS*LYS*CYS*ALA*LYS*ILE*LYS*TRP*ARG*GLY*VAL*HIS*VAL*LYS*TYR*CYS*ALA] was tested, and the “Antimicrobial activity (percentage of CFU growth inhibition) P. aeruginosa” value (P. aeruginosa ATCC 27853; 12.5 μg/ml) was 100%, the “Antimicrobial activity (percentage of CFU growth inhibition) P. aeruginosa” value (P. aeruginosa ATCC 27853; 100 μg/ml) was 100% and the “Inflexion point CENTA” value (E. coli ML-35pYC; CENTA substrate (periplasmic beta-lactamase)) was greater than 500 min. For the same molecule, the “Inflexion point ONPG” value (E. coli ML-35pYC; ONPG substrate (cytoplasmic beta-galactosidase)) was 16.08 min.
